Test results as given in US9670204B2, “Compounds and pharmaceutical compositions thereof for the treatment of inflammatory disorders” (Galapagos NV, priority 2013, dated 2017).

target: hENPP2 (UniProtKB/SwissProt Q13822) (Homo sapiens (Human), UniProt Q13822); experiment: hENPP2 biochemical assay, LPC as substrate; conditions: LPC (palmitoyl 16:0) as substrate
Experimental: The principle of the assay consists in quantifying the released choline with an enzymatic method using choline oxidase and peroxidase. Choline oxydation by choline oxydase releases betaine and peroxide. The latter is quantified in presence of HRP that converts the peroxide detection agent TOOS and 4-aminoantipyrine into quinoneimine dye. The appearance of quinoneimine dye is measured spectrophotometrically at 555 nm and is proportional to the amount of choline released by ENPP2. Inhibition of ENPP2 will result in a decrease of the signal.
Compound IC50 values are determined in a hENPP2 (UniProtKB/SwissProt Sequence ref Q13822) biochemical assay using LPC as substrate.
The enzyme is diluted in 50 mM Tris-HCl pH 8.5, 500 mM NaCl, 5 mM KCl, 10 mM CaCl2, 0.1% fatty acid free BSA in a total volume of 10 μL. the reaction is started by the addition of 10 μL of 150 μM LPC (palmitoyl 16:0) diluted in the same buffer as described above and the mixture is incubated at 37° C. for 30 min. The reaction is terminated and choline quantified by the addition of a 25 μL of a mixture containing 0.6 U/mL of choline oxidase, 0.6 U/mL of peroxydase, 1.8 mM TOOS, 1.2 mM amino-antipyrine, 20 mM EGTA (stop-developer solution) diluted in the buffer described above. […] is read on the Envision after an incubation of 30 min at room temperature (Excitation 555 nm, excitation light=70%).

Row | IC50 [nM] | Compound
1 | 100 to 500 | CCc1nc2ccc(C3CCN(C(=O)CN(C)C)CC3)cn2c1N(C)c1nc(-c2ccc(F)cc2)cs1 [Compound 129, 2-(dimethylamino)-1-(4-(2-ethyl-3-((4-(4-fluorophenyl)thiazol-2-yl)(methyl)amino)imidazo[1,2-a]pyridin-6-yl)piperidin-1-yl)ethanone]
2 | 100 to 500 | CCc1nc2ccc(C3CCN(C(=O)CCN(C)C)CC3)cn2c1N(C)c1nc(-c2ccc(F)cc2)cs1 [Compound 130, 3-(dimethylamino)-1-(4-(2-ethyl-3-((4-(4-fluorophenyl)thiazol-2-yl)(methyl)amino)imidazo[1,2-a]pyridin-6-yl)piperidin-1-yl)propan-1-one]
3 | 100 to 500 | CCc1nc2ccc(C3CCN(C(=O)CN4CC(F)(F)C4)CC3)cn2c1N(C)c1nc(-c2ccc(F)cc2)cs1 [Compound 131]
4 | > 1000 | CCc1nc2ccc(C3CCN(C(=O)CCNC)CC3)cn2c1N(C)c1nc(-c2ccc(F)cc2)cs1 [Compound 132, 1-(4-(2-ethyl-3-((4-(4-fluorophenyl)thiazol-2-yl)(methyl)amino)imidazo[1,2-a]pyridin-6-yl)piperidin-1-yl)-3-(methylamino)propan-1-one]
5 | 0.01 to 100 | CCc1nc2ccc(N3CCN(CC(=O)N4CC(CO)C4)CC3)cn2c1N(C)c1nc(-c2ccc(F)cc2)c(C#N)s1 [Compound 139, 2-((2-ethyl-6-(4-(2-(3-(hydroxymethyl)azetidin-1-yl)-2-oxoethyl)piperazin-1-yl)imidazo[1,2-a]pyridin-3-yl)(methyl)amino)-4-(4-fluorophenyl) thiazole-5-carbonitrile]
6 | 500 to 1000 | CCc1nc2ccc(N3CCN(CC(=O)N4CC(CO)C4)CC3)cn2c1N(C)c1nc(-c2ccc(F)cc2)c(CO)s1 [Compound 146, 2-(4-(2-ethyl-3-((4-(4-fluorophenyl)-5-(hydroxymethyl)thiazol-2-yl)(methyl)amino)imidazo[1,2-a]pyridin-6-yl)piperazin-1-yl)-1-(3-(hydroxymethyl)azetidin-1-yl)ethanone]
7 | > 1000 | CCc1nc2ccc(C3CCN(S(C)(=O)=O)CC3)cn2c1N(C)c1nc(-c2ccc(OC(F)(F)F)cc2)c(CO)s1 [Compound 148, (2-((2-ethyl-6-(1-(methylsulfonyl)piperidin-4-yl)imidazo [1,2-a]pyridin-3-yl)(methyl)amino)-4-(4-(trifluoromethoxy)phenyl)thiazol-5-yl) methanol]
8 | 500 to 1000 | CCc1nc2ccc(C3CCN(S(C)(=O)=O)CC3)cn2c1N(C)c1nc(-c2ccc(C(F)(F)F)cc2)c(CO)s1 [Compound 150, (2-((2-ethyl-6-(1-(methylsulfonyl)piperidin-4-yl)imidazo [1,2-a]pyridin-3-yl)(methyl)amino)-4-(4-(trifluoromethyl)phenyl)thiazol-5-yl) methanol]
9 | 500 to 1000 | CCc1nc2ccc(C3CCN(CC(=O)N4CCCC4)CC3)cn2c1N(C)c1nc(-c2ccc(F)cc2)c(CO)s1 [Compound 151, 2-(4-(2-ethyl-3-((4-(4-fluorophenyl)-5-(hydroxymethyl)thiazol-2-yl)(methyl)amino)imidazo[1,2-a]pyridin-6-yl)piperidin-1-yl)-1-(pyrrolidin-1-yl)ethanone]
10 | 500 to 1000 | CCc1nc2ccc(C3CCN(CC(=O)N4CC(CO)C4)CC3)cn2c1N(C)c1nc(-c2ccc(F)cc2)c(CO)s1 [Compound 152]
11 | 500 to 1000 | CCc1nc2ccc(C3CCN(C(=O)CN(C)C)CC3)cn2c1N(C)c1nc(-c2ccc(F)cc2)c(CO)s1 [Compound 153, 2-(dimethylamino)-1-(4-(2-ethyl-3-((4-(4-fluorophenyl)-5-(hydroxymethyl)thiazol-2-yl)(methyl)amino)imidazo[1,2-a]pyridin-6-yl)piperidin-1-yl) ethanone]
12 | > 1000 | CCc1nc2ccc(N3CCNCC3)cn2c1N(C)c1nc(-c2ccc(F)cc2C#N)c(C)s1 [Compound 161, 2-(2-((2-ethyl-6-(piperazin-1-yl)imidazo[1,2-a]pyridin-3-yl)(methyl)amino)-5-methylthiazol-4-yl)-5-fluorobenzonitrile]
13 | 500 to 1000 | CCc1nc2ccc(N3CCN(CC(=O)NC)CC3)cn2c1N(C)c1nc(-c2ccc(F)cc2C#N)c(C)s1 [Compound 163, 2-(4-(3-((4-(2-cyano-4-fluorophenyl)-5-methylthiazol-2-yl)(methyl)amino)-2-ethylimidazo[1,2-a]pyridin-6-yl)piperazin-1-yl)-N-methylacetamide]
14 | 0.01 to 100 | CCc1nc2ccc(N3CCN(CC(=O)N4CC(F)C4)CC3)cn2c1N(C)c1nc(-c2ccc(F)cc2C#N)cs1 [Compound 164, 2-(2-((2-ethyl-6-(4-(2-(3-fluoroazetidin-1-yl)-2-oxoethyl)piperazin-1-yl)imidazo[1,2-a]pyridin-3-yl)(methyl)amino)thiazol-4-yl)-5-fluorobenzonitrile]
15 | 100 to 500 | CCc1nc2ccc(N3CCN(CC(=O)N4CC(F)(F)C4)CC3)cn2c1N(C)c1nc(-c2ccc(F)cc2C#N)cs1 [Compound 165, 2-(2-((6-(4-(2-(3,3-difluoroazetidin-1-yl)-2-oxoethyl)piperazin-1-yl)-2-ethylimidazo[1,2-a]pyridin-3-yl)(methyl)amino)thiazol-4-yl)-5-fluorobenzonitrile]
16 | 0.01 to 100 | CCc1nc2ccc(N3CCN(CC(=O)NC)CC3)cn2c1N(C)c1nc(-c2ccc(F)cc2C#N)cs1 [Compound 169, 2-(4-(3-((4-(2-cyano-4-fluorophenyl)thiazol-2-yl)(methyl)amino)-2-ethylimidazo[1,2-a]pyridin-6-yl)piperazin-1-yl)-N-methylacetamide]
17 | > 1000 | CN(C)C(=O)CN1CCC(c2ccc3nc(CCC(N)=O)c(N(C)c4nc(-c5ccc(F)cc5)cs4)n3c2)CC1 [Compound 176, 3-(6-(1-(2-(dimethylamino)-2-oxoethyl)piperidin-4-yl)-3-((4-(4-fluorophenyl)thiazol-2-yl)(methyl)amino)imidazo[1,2-a]pyridin-2-yl)propanamide]
18 | 500 to 1000 | CCc1nc2ccc(N3CC(N)C3)cn2c1N(C)c1nc(-c2ccc(F)cc2)cs1 [Compound 177, [6-(3-Amino-azetidin-1-yl)-2-ethyl-imidazo[1,2-a]pyridin-3-yl]-[4-(4-fluoro-phenyl)-thiazol-2-yl]-methyl-amine]
19 | 100 to 500 | CCc1nc2ccc(N3CC(NCC(=O)N4CC(O)C4)C3)cn2c1N(C)c1nc(-c2ccc(F)cc2)cs1 [Compound 178, 2-(1-(2-ethyl-3-((4-(4-fluorophenyl)thiazol-2-yl)(methyl)amino)imidazo[1,2-a]pyridin-6-yl)azetidin-3-ylamino)-1-(3-hydroxyazetidin-1-yl)ethanone]
20 | > 1000 | CCc1nc2ccc(C3=CCN(CC(=O)N(C)C)CC3)cn2c1N(C)c1nc(-c2ccc(F)cc2)ns1 [Compound 190, 2-(4-(2-ethyl-3-((3-(4-fluorophenyl)-1,2,4-thiadiazol-5-yl)(methyl)amino)imidazo[1,2-a]pyridin-6-yl)-5,6-dihydropyridin-1(2H)-yl)-N,N-dimethylacetamide]
21 | > 1000 | CCc1nc2ccc(C3=CCN(S(C)(=O)=O)CC3)cn2c1N(C)c1nc(-c2ccc(C(F)(F)F)cc2)cs1 [Compound 193, N-(2-ethyl-6-(1-(methylsulfonyl)-1,2,3,6-tetrahydropyridin-4-yl)imidazo[1,2-a]pyridin-3-yl)-N-methyl-4-(4-(trifluoromethyl)phenyl) thiazol-2-amine]
